Values quoted from earlier work in patent US20050181044A1, “Compositions and methods for timed release of water-soluble nutritional supplements, green coffee extract” (priority 2004, published 2005).

Conditions: absorbed by the gastrointestinal tract, after first-pass metabolism in the liver

Question: Which bioavailability does the source give for `N[C@H]1C(O)O[C@H](CO)[C@@H](O)[C@@H]1O` (stereo partly shown) [Glucosamine] here?
Answer: 26%
